Results as given in US9376380B2 (University of Pittsburgh—Of the Commonwealth System of …, priority 2011, dated 2016).
“Also recorded” adds a separate entry of the source.

Key:
[1] = test system: Human MM cell U266; assay: [3H]-thymidine uptake cell proliferation assay, U266; type: cell-based; details: for inhibition of DNA synthesis in MM cells: U266, 0-10 μmol/L, 48 h
Method: (§1) FIG. 2. Inhibitory effects of CB2 ligands on human MM cell growth. Human MM cell U266 (3×10^4 cells per well in 96-well plate) was exposed to the known CB2 ligands (A) or PAM (B) at indicated concentrations (0-10 μmol/L) for 48 h. Cell proliferation was measured by [^3H]-thymidine uptake assay as described in Materials and Methods. (C) U266 cells (3×10^4 per well in 96-well plate) were treated with PAM at indicated doses for 48 h. Cell viability and the viable cell number per well were determined using trypan blue exclusion assay. (D) Human chemoresistant myeloma cell lines MM.1R (dexamethasone), RPMI-8226/LR5 (melphalan) and their respective parent cells MM.1S and RPMI-8226 were exposed to PAM for 48 h. Cell proliferation was measured by ^3H-thymidine incorporation. The data presented are the mean±SD of at least 3 independent measurements. (E) [S^35]-GTPγS binding assay of different ligands on human CB2 receptor expressed in CHO cells.
(§2) A tritiated thymidine incorporation assay was carried out to investigate the effects of CB2 ligands on cell proliferation. U266, RPMI-8226 (3×10^4 cells/well), MM.1 S cells (6×10^4 cells/well), and their resistant sublines were cultured in 96-well culture plates with or without drugs for 48 hours. DNA synthesis was measured by ^3H-thymidine uptake as described previously.

[2] = test system: MM.1R (dexamethasone) and RPMI-8226/LR5 (melphalan) cells; assay: [3H]-thymidine incorporation, chemoresistant myeloma cell lines; type: cell-based; details: Homo sapiens; MM.1R and RPMI-8226/LR5, 48 h; read-out: growth inhibition of chemoresistant myeloma cell lines, IC50
Method: as §1, §2

[3] = test system: MM.1S and RPMI-8226 cells; assay: [3H]-thymidine incorporation, parent myeloma cell lines; type: cell-based, human; details: MM.1S and RPMI-8226, 48 h
Method: as §1, §2

[4] = target: T1, CB2 receptor (Homo sapiens, UniProt P34972); assay: Cell-based cAMP assay
T1 sequence (P34972 whole entry): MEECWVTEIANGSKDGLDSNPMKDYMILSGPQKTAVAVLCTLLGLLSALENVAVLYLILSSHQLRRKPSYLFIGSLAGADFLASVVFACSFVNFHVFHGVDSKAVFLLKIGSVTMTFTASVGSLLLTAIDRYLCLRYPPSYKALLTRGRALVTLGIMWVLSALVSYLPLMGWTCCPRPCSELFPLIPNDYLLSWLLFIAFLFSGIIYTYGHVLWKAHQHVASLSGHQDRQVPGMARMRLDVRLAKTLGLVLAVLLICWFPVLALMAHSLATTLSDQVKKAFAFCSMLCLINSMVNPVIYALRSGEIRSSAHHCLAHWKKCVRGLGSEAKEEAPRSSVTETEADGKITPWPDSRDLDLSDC
Excerpt: Cell-based cAMP assays were used to identify the mode by which the CB2 ligands according to the present invention modulate CB2 receptor.

[5] = target: T2, human CB2 receptor expressed in CHO cells (Homo sapiens, UniProt P34972); assay: [35S]-GTPγS binding assay; type: biochemical
T2 construct: expressed in transfected cells; host or cells: CHO cells
T2 sequence (P34972 whole entry): as above

[6] = test system: MM1.S cells expressing shRNA against human CB2; assay: Proliferation in CB2 knockdown MM1.S cells; type: cell-based; details: 48 h, [3H]TdR uptake
Method: (§3) FIG. 3. Inhibitory activity of PAM (compound (1)) in CB2 knockdown or agonist treated cells. (A) CB2 gene silencing in MM1.S cells confirmed by Western blot with CB2antibody. (B) Human MM1.S cells expressing shRNA vector or expressing the specific shRNA against human CB2 were treated with vehicle control (white column), or the indicated concentrations of PAM (black column) for 48 h. Cell proliferation was measured by [^3H]TdR uptake. […] The cell viability and the viable cells/well were determined using trypan blue exclusion assay.

[7] = test system: U266 cells; assay: Trypan blue viability of U266 cells with CB2 agonist; type: cell-based, human; details: Win55212-2 or CP55940, 48 h
Method: as §3

[8] = test system: MM cells; assay: Apoptosis and cell cycle protein studies in MM cells; type: cell-based
Excerpt: Since drug resistance is a prevalent problem in multiple myeloma clinical treatment, the ability of compounds according to this invention to overcome chemoresistance of MM cells against conventional drugs such as dexamethasone or melphalan provides an unexpected advantageous benefit in MM treatment. The present inventors have hypothesized that the cell inhibitory activity of the inventive compounds is due to their ability to activate apoptotic processes.
Compound (1) also altered certain proteins that are known to play a role in the cell-growth cycle. […] To further explore this observation, the present inventors investigated the effect of compound (1) on several proteins involved in cell G2-M phase transition.

[9] = test system: bone marrow mononuclear cells (MNC); assay: RANKL-induced osteoclast formation in bone marrow mononuclear cells; type: cell-based, murine and human
Method: FIG. 4. Effects of XIE35 and compound (1) on RANKL-induced osteoclast formation in bone marrow mononuclear cells (MNC). […] Half-medium change was performed every other day using drug-containing media where appropriate. After 5 days, the cells were fixed and stained for TRAP activity using a TRAP-staining kit (Sigma-Aldrich) according to the manufacturer's instructions. Lower panel: Human bone marrow MNCs (1×10^5 per well) were treated with rhRANKL (50 ng/ml) plus rhM-CSF (10 ng/ml), and the respective compounds as described above. After three weeks, differentiation into OCLs was assessed by staining with monoclonal antibody 23c6 using a Vectastatin-ABC-AP kit (Vector Laboratories). The antibody 23c6, which recognizes CD51/61 dimer constituting the OCL vitronectin receptor, was kindly provided by the Bone Biology Center of our university. Images were obtained with an Olympus IX70 microscope. Arrows designate the typical multinucleated osteoclasts with 3 or more nuclei.

[10] = target: T1, CB2 receptor; assay: [3H]CP-55,940 radioligand competition binding, CB2; design: host or cells: cell membrane preparations; details: for SI: selectivity index for CB2: Ki(CB1)/Ki(CB2) ratio; for Ki: [3H]CP-55,940 displacement, read-out: Ki (CB2)
Method: (§4) Briefly, the bioassay is carried out using the Perkin Elmer 96-well Top Counter. […] The procedure is as follows.
(§5) In competition binding experiments, the tested compound dilutions are carried out in duplicate in TME buffer (25 mM Tris, 5 mM MgCl2, 1 mM EDTA) containing 0.1% (w/v) fatty acid free bovine serum albumin (BSA), pH 7.4. […] TME buffer and cell membrane preparations expressing CB receptors (5 μg per well) are added to a final volume of 200 μL. […] After the binding suspensions are incubated at 30° C. for 1 hr, the reaction is terminated by rapid filtration through microfiltration plates (Unifilter GF/B filterplate, PerkinElmer), followed by 5 washes with ice cold TME buffer containing 0.1% BSA on a Packard Filtermate Harvester (PerkinElmer). The plates are then dried overnight and 30 μl MicroScint 0 scintillation cocktail is added to each well of the dried filter plates. The bound radioactivity is then counted using a Perkin Elmer 96-well TopCounter. […] This assay is used for determination of the binding affinity parameters (Ki) of ligand-receptor interactions for the CB receptor.

[11] = target: T3, CB1 receptor (Homo sapiens, UniProt P21554); assay: [3H]CP-55,940 radioligand competition binding, CB1; details: [3H]CP-55,940 displacement; read-out: Ki (CB1)
T3 construct: host or cells: cell membrane preparations
T3 sequence (P21554 whole entry): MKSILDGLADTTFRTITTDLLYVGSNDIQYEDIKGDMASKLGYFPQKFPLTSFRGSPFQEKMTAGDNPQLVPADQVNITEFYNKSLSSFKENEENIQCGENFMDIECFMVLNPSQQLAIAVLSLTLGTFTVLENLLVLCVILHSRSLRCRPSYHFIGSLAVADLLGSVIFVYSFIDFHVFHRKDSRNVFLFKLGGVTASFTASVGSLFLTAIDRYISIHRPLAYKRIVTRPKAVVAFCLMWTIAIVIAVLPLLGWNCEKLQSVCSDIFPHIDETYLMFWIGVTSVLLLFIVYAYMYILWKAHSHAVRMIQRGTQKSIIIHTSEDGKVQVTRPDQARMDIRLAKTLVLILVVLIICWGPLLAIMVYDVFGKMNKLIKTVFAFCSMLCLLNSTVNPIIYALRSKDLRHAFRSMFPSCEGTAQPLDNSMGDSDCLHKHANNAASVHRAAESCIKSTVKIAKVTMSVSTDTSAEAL
Method: as §4, §5

[12] = test system: RAW 264.7 cells; assay: RANKL-induced osteoclast differentiation on RAW 264.7 cells (TRAP); type: cell-based, mouse
Excerpt: FIG. 5. Anti-osteoclastogenesis activity of exemplary compounds. […] The bar indicates the SD. (B) Photographs of cells in the test of compound 93 (original magnification 100×).

[13] = test system: peripheral blood mononuclear cell (PBMC); assay: Cytotoxicity on normal human PBMC, trypan blue exclusion; type: cell-based; details: 3 days
Excerpt: Peripheral blood was drawn in a heparinized syringe from healthy fasting volunteers who had been without medication for at least 2 weeks. The peripheral blood mononuclear cell (PBMC) fraction was obtained by gradient centrifugation over Ficoll-Hypaque (Amersham), as described by Feng, R. et al. S. KD5170, a novel mercaptoketone-based histone deacetylase inhibitor, exerts antimyeloma effects by DNA damage and mitochondrial signaling, Mol. Cancer Ther. 2008, 7, 1494-1505. […] The compounds in a stock solution (50 mMin DMSO) were diluted with the culture medium to application conditions and further used for the treatment of PBMC for 3 days. The final DMSO concentrations are always 0.02%. After treatment for 72 h, cell viability was determined using trypan blue exclusion assay. These human cell studies conformed to the guidelines of the Institutional Review Board of the University of Pittsburgh, Pa.

COc1ccc(C(=O)c2c(C)n(CCN3CCOCC3)c3cc(I)ccc23)cc1 [AM630]
inhibition of DNA synthesis in MM cells [1]: dose dependent inhibition

CN(C)c1ccc(C(NC(=O)Cc2ccccc2)NC(=O)Cc2ccccc2)cc1 [Compound 1, N,N′-((4-(dimethylamino)phenyl)methylene)bis(2-phenylacetamide)]
IC50 ([1]; Homo sapiens, U-266, U266, 48 h, [3H]-thymidine uptake, read-out: inhibition of DNA synthesis in MM cells, IC50): 1250 nM
IC50 [2]: 600 to 1200 nM
growth inhibitory effect on parent cells [3]: no growth inhibitory effect
mode of CB2 modulation (c-AMP studies) [4]: inverse agonist
CB2 receptor modulatory activity ([35S]-GTPγS) [5]: inverse CB2 receptor agonist
anti-MM activity after stable knockout of CB2 [6]: largely abrogated
inhibition of MM cell growth after pretreatment with CB2 agonist [7]: attenuated
ER stress-induced transcription factor CHOP [8]: transiently upregulated
H2A.X phosphorylation [8]: did not have any effect
MAPK family members in treated MM cells [8]: not up regulated
effect on Cdc25C activation of Cdc2 [8]: prevents the tyrosine phosphatase Cdc25C from activating cyclin-B bound Cdc2
number of cells in the G0-G1 phase ([8]; various concentrations): does not change
number of cells in the S-phase and G2-M phase ([8]; various concentrations): decreased in a dose dependent manner
RANKL/M-CSF induced osteoclast formation ([9]; 1 μM, murine 5 days, human three weeks): anti-osteoclast activity; also recorded: completely blocking osteoclast formation
toxicity ([9]; concentrations as high as 1 μM): non-toxic
SI: selectivity index for CB2 [10]: >26
Ki [10]: 777 nM

CCN(CC)c1ccc(CN(c2ccc(C)cc2)S(=O)(=O)c2ccc(OC)cc2)cc1 [Compound 93, N-(4-(Diethylamino)benzyl)-4-methoxy-N-(p-tolyl)benzenesulfonamide]
Ki [11]: 1300 nM
inhibition activity at low dose ([12]; 1 μM): good inhibition activity
inhibition at 0.1 µM ([12]; Mus musculus, RAW264.7, 0.1 μM, read-out: inhibition rate of osteoclast formation): 46%
inhibition at 1 µM ([12]; Mus musculus, RAW264.7, 1 μM, read-out: inhibition rate of osteoclast formation): 97%
inhibition at 10 µM ([12]; Mus musculus, RAW264.7, 10 μM, read-out: inhibition rate of osteoclast formation): 100%
inhibition of RANKL-induced osteoclastogenesis, dose dependence ([12]; RANKL 15 ng/mL, 5 days): dose-dependent manner
cell viability vs vehicle control ([13]; 1.25 and 2.5 μM): not significantly affected
effects on cell viability ([13]; 5 and 10 μM): only some effects on cell viability
cell viability vs vehicle control [13]: not significantly affected
SI: selectivity index for CB2 [10]: 2594
Ki [10]: 0.5 nM

CCCCCCC(C)(C)c1cc(OC)c([C@@H]2C=C(CO)[C@@H]3C[C@H]2C3(C)C)c(OC)c1 [Hu308]
inhibition of DNA synthesis in MM cells [1]: no effect
